Reference: publication PMC5486078, “Molecular Cloning and Functional Characterization of a Hexokinase from the Oriental River Prawn Macrobrachium nipponense in Response to Hypoxia” (International Journal of Molecular Sciences, 2017)
Read-outs that look alike come from different tables or passages of the source. Values belong to the molecule of their own block, whether it stands above or below them.

Assays:
[1] = biological target: T1, rMnHK (recombinant M. nipponense hexokinase) (Macrobrachium nipponense, UniProt A0A220NLA7); assay: enzyme inhibition, Lineweaver-Burk plot; type: biochemical
T1 construct: pET-28a, His tag, E. coli BL21 (DE3); about 70 kDa on SDS-PAGE
T1 sequence (A0A220NLA7 1-449): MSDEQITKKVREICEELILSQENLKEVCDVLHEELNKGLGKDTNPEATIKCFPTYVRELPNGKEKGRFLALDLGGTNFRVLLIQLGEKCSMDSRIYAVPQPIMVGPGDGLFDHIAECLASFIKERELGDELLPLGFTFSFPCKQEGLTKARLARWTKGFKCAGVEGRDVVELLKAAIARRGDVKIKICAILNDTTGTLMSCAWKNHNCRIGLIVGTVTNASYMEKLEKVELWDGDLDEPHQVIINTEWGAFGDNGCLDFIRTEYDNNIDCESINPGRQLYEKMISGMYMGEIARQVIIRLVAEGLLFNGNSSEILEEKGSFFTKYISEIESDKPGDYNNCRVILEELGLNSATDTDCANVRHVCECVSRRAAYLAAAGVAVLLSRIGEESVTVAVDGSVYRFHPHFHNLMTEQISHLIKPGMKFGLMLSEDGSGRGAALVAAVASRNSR
Source text: enzyme inhibition, Lineweaver-Burk plot on rMnHK (recombinant M. nipponense hexokinase)

[2] = substrate: Nc1ncnc2c1ncn2[C@@H]1O[C@H](COP(=O)(O)OP(=O)(O)OP(=O)(O)O)[C@@H](O)[C@H]1O; assay: steady-state kinetics, Michaelis-Menten / Lineweaver-Burk plot; type: biochemical, Macrobrachium nipponense; conditions: co-substrate hexose; assay pH and temperature not stated

Ki ([1]; read-out: Inhibitor Studies (Ki) (mM) / PPi): 0.011 mM
Molecule: O=P(O)(O)OP(=O)(O)O [PPi]

Ki ([1]; read-out: Inhibitor Studies (Ki) (mM) / ADP): 0.76 mM
Molecule: Nc1ncnc2c1ncn2[C@@H]1O[C@H](COP(=O)(O)OP(=O)(O)O)[C@@H](O)[C@H]1O [ADP]

B1: rMnHK (recombinant M. nipponense hexokinase) (Macrobrachium nipponense) (protein)
chain: MSDEQITKKVREICEELILSQENLKEVCDVLHEELNKGLGKDTNPEATIKCFPTYVRELPNGKEKGRFLALDLGGTNFRVLLIQLGEKCSMDSRIYAVPQPIMVGPGDGLFDHIAECLASFIKERELGDELLPLGFTFSFPCKQEGLTKARLARWTKGFKCAGVEGRDVVELLKAAIARRGDVKIKICAILNDTTGTLMSCAWKNHNCRIGLIVGTVTNASYMEKLEKVELWDGDLDEPHQVIINTEWGAFGDNGCLDFIRTEYDNNIDCESINPGRQLYEKMISGMYMGEIARQVIIRLVAEGLLFNGNSSEILEEKGSFFTKYISEIESDKPGDYNNCRVILEELGLNSATDTDCANVRHVCECVSRRAAYLAAAGVAVLLSRIGEESVTVAVDGSVYRFHPHFHNLMTEQISHLIKPGMKFGLMLSEDGSGRGAALVAAVASRNSR
notes: pET-28a, His tag, E. coli BL21 (DE3); about 70 kDa on SDS-PAGE
Km [2]: 880 ± 600 µM
